Measurements: patent US20260365682A1, “MODULATORS OF TNF-ALPHA ACTIVITY” (Forward Therapeutics, Inc., priority 2022, published 2026)

Target: T1, TNF-α (Homo sapiens, UniProt P01375)
T1 construct: purchased R&D 210-TA-020/CF
Experiment: TNF-α Induced HEK Blue Cellular Assay (secreted alkaline phosphatase expression, QUANTI-Blue)
Type: cell-based
Settings: HEK Blue TNFα reporter cells; TNF-α 100 μg/ml; 24 hrs at 37° C.; inhibition of secreted alkaline phosphatase; read-out: IC50 value
Method in brief: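 Compound was serially diluted from […] to 0.5 nM final, then incubated with 10,000 HEK Blue TNFα reporter cells per well and […] TNF-α for 24 h at 37° C. SEAP output was read by QUANTI-Blue absorbance at 620 nm. Inhibition was background-corrected against DMSO controls with and without stimulation, and IC50 was fitted with a 4-parameter logistic equation.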

T1 sequence (P01375 77-233 limits assumed): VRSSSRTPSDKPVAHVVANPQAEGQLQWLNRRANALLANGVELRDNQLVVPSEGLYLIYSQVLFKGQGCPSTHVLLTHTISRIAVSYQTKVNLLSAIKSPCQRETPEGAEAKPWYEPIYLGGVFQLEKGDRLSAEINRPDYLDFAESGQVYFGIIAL

SMILES | IC50
[2H]C([2H])([2H])N1C(=O)c2cccc(OC(F)F)c2[C@H]2C[C@@H]1c1nc3ccc(C#CC4CCN(C(=O)C(C)(C)C)C4)cc3n12 (stereo partly drawn) [Example 204, (7R,14R)-1-(difluoromethoxy)-6-(methyl-d3)-11-((1-pivaloylpyrrolidin-3-yl)ethynyl)-6,7-dihydro-7,14-methanobenzo[f]benzo[4,5]imidazo[1,2-a][1,4]diazocin-5(14H)-one] | < 100 nM
[2H]C([2H])([2H])N1C(=O)c2cccc(OC(F)F)c2[C@H]2C[C@@H]1c1nc3ccc(C#CCCC(C)O)cc3n12 (stereo partly drawn) [Example 207, (7R,14R)-1-(difluoromethoxy)-11-(5-hydroxyhex-1-yn-1-yl)-6-(methyl-d3)-6,7-dihydro-7,14-methanobenzo[f]benzo[4,5]imidazo[1,2-a][1,4]diazocin-5(14H)-one] | < 100 nM
[2H]C([2H])([2H])N1C(=O)c2cccc(OC(F)F)c2[C@H]2C[C@@H]1c1nc3ccc(C#CCCNC(=O)C(C)(C)O)cc3n12 [Example 213, N-(4-((7R,14R)-1-(difluoromethoxy)-6-(methyl-d3)-5-oxo-5,6,7,14-tetrahydro-7,14-methanobenzo[f]benzo[4,5]imidazo[1,2-a][1,4]diazocin-11-yl)but-3-yn-1-yl)-2-hydroxy-2-methylpropanamide] | 10000 to 30000 nM
[2H]C([2H])([2H])N1C(=O)c2cccc(OC(F)F)c2[C@H]2C[C@@H]1c1nc3ccc(C#CCCNC(=O)C4CC4)cc3n12 [Example 214, N-(4-((7R,14R)-1-(difluoromethoxy)-6-(methyl-d3)-5-oxo-5,6,7,14-tetrahydro-7,14-methanobenzo[f]benzo[4,5]imidazo[1,2-a][1,4]diazocin-11-yl)but-3-yn-1-yl)cyclopropanecarboxamide] | 100 to 1000 nM
[2H]C([2H])([2H])N1C(=O)c2cccc(OC(F)F)c2[C@H]2C[C@@H]1c1nc3ccc(C#CCCNC(=O)C(C)(C)C)cc3n12 [Example 215, N-(4-((7R,14R)-1-(difluoromethoxy)-6-(methyl-d3)-5-oxo-5,6,7,14-tetrahydro-7,14-methanobenzo[f]benzo[4,5]imidazo[1,2-a][1,4]diazocin-11-yl)but-3-yn-1-yl)pivalamide] | 10000 to 30000 nM
[2H]C([2H])([2H])N1C(=O)c2cccc(OC(F)F)c2[C@H]2C[C@@H]1c1nc3ccc(C#CC(O)CC(F)(F)F)cc3n12 (stereo partly drawn) [Example 219, (7R,14R)-1-(difluoromethoxy)-6-(methyl-d3)-11-(5,5,5-trifluoro-3-hydroxypent-1-yn-1-yl)-6,7-dihydro-7,14-methanobenzo[f]benzo[4,5]imidazo[1,2-a][1,4]diazocin-5(14H)-one] | < 100 nM
[2H]C([2H])([2H])N1C(=O)c2cccc(OC(F)F)c2[C@H]2C[C@@H]1c1nc3ccc(C#CCCN4CC[C@H](F)C4)cc3n12 [Example 220, (7R,14R)-1-(difluoromethoxy)-11-(4-((S)-3-fluoropyrrolidin-1-yl)but-1-yn-1-yl)-6-(methyl-d3)-6,7-dihydro-7,14-methanobenzo[f]benzo[4,5]imidazo[1,2-a][1,4]diazocin-5(14H)-one] | < 100 nM
[2H]C([2H])([2H])N1C(=O)c2cccc(OC(F)F)c2[C@H]2C[C@@H]1c1nc3ccc(C#CCCN4CCC(F)(F)C4)cc3n12 [Example 226, (7R,14R)-1-(difluoromethoxy)-11-(4-(3,3-difluoropyrrolidin-1-yl)but-1-yn-1-yl)-6-(methyl-d3)-6,7-dihydro-7,14-methanobenzo[f]benzo[4,5]imidazo[1,2-a][1,4]diazocin-5(14H)-one] | < 100 nM
[2H]C([2H])([2H])N1C(=O)c2cccc(OC(F)F)c2[C@H]2C[C@@H]1c1nc3ccc(C#CCCN4CC[C@@H](F)C4)cc3n12 [Example 227, (7R,14R)-1-(difluoromethoxy)-11-(4-((R)-3-fluoropyrrolidin-1-yl)but-1-yn-1-yl)-6-(methyl-d3)-6,7-dihydro-7,14-methanobenzo[f]benzo[4,5]imidazo[1,2-a][1,4]diazocin-5(14H)-one] | < 100 nM
[2H]C([2H])([2H])N1C(=O)c2cccc(OC(F)F)c2[C@H]2C[C@@H]1c1nc3ccc(C#CCCN4CC(F)C4)cc3n12 [Example 228, (7R,14R)-1-(difluoromethoxy)-11-(4-(3-fluoroazetidin-1-yl)but-1-yn-1-yl)-6-(methyl-d3)-6,7-dihydro-7,14-methanobenzo[f]benzo[4,5]imidazo[1,2-a][1,4]diazocin-5(14H)-one] | < 100 nM
[2H]C([2H])([2H])N1C(=O)c2cccc(OC(F)F)c2[C@H]2C[C@@H]1c1nc3ccc(C#CCN4CCOCC4)cc3n12 [Example 229, (7R,14R)-1-(difluoromethoxy)-6-(methyl-d3)-11-(3-morpholinoprop-1-yn-1-yl)-6,7-dihydro-7,14-methanobenzo[f]benzo[4,5]imidazo[1,2-a][1,4]diazocin-5(14H)-one] | 100 to 1000 nM
[2H]C([2H])([2H])N1C(=O)c2cccc(OC(F)F)c2[C@H]2C[C@@H]1c1nc3ccc(C#CCN4CCC(F)(F)C4)cc3n12 [Example 230, (7R,14R)-1-(difluoromethoxy)-11-(3-(3,3-difluoropyrrolidin-1-yl)prop-1-yn-1-yl)-6-(methyl-d3)-6,7-dihydro-7,14-methanobenzo[f]benzo[4,5]imidazo[1,2-a][1,4]diazocin-5(14H)-one] | < 100 nM

Continued, values first:

IC50 | SMILES
< 100 nM | [2H]C([2H])([2H])N1C(=O)c2cccc(OC(F)F)c2[C@H]2C[C@@H]1c1nc3ccc(C#CC4(C)CN(C(=O)C5(O)CC5)C4)cc3n12 [Example 205, (7R,14R)-1-(difluoromethoxy)-11-((1-(1-hydroxycyclopropane-1-carbonyl)-3-methylazetidin-3-yl)ethynyl)-6-(methyl-d3)-6,7-dihydro-7,14-methanobenzo[f]benzo[4,5]imidazo[1,2-a][1,4]diazocin-5(14H)-one]
< 100 nM | [2H]C([2H])([2H])N1C(=O)c2cccc(OC(F)F)c2[C@H]2C[C@@H]1c1nc3ccc(C#CC4(C)CN(CC)C4)cc3n12 [Example 206, (7R,14R)-1-(difluoromethoxy)-11-((1-ethyl-3-methylazetidin-3-yl)ethynyl)-6-(methyl-d3)-6,7-dihydro-7,14-methanobenzo[f]benzo[4,5]imidazo[1,2-a][1,4]diazocin-5(14H)-one]
100 to 1000 nM | [2H]C([2H])([2H])N1C(=O)c2cccc(OC(F)F)c2[C@H]2C[C@@H]1c1nc3ccc(C#CC4(C)CN(C(=O)C5CC5(F)F)C4)cc3n12 (stereo partly drawn) [Example 210, (7R,14R)-11-((1-(2,2-difluorocyclopropane-1-carbonyl)-3-methylazetidin-3-yl)ethynyl)-1-(difluoromethoxy)-6-(methyl-d3)-6,7-dihydro-7,14-methanobenzo[f]benzo[4,5]imidazo[1,2-a][1,4]diazocin-5(14H)-one]
< 100 nM | [2H]C([2H])([2H])N1C(=O)c2cccc(OC(F)F)c2[C@H]2C[C@@H]1c1nc3ccc(C#CC4(C)CN(C5CC5)C4)cc3n12 [Example 211, (7R,14R)-11-((1-cyclopropyl-3-methylazetidin-3-yl)ethynyl)-1-(difluoromethoxy)-6-(methyl-d3)-6,7-dihydro-7,14-methanobenzo[f]benzo[4,5]imidazo[1,2-a][1,4]diazocin-5(14H)-one]
100 to 1000 nM | [2H]C([2H])([2H])N1C(=O)c2cccc(OC(F)F)c2[C@H]2C[C@@H]1c1nc3ccc(C#CC4(C)CCOC4)cc3n12 (stereo partly drawn) [Example 212, (7R,14R)-1-(difluoromethoxy)-6-(methyl-d3)-11-((3-methyltetrahydrofuran-3-yl)ethynyl)-6,7-dihydro-7,14-methanobenzo[f]benzo[4,5]imidazo[1,2-a][1,4]diazocin-5(14H)-one]
10000 to 30000 nM | [2H]C([2H])([2H])N1C(=O)c2cccc(OC(F)F)c2[C@H]2C[C@@H]1c1nc3ccc(C#CC4CCCN(C5CC5)C4)cc3n12 (stereo partly drawn) [Example 218, (7R,14R)-11-((1-cyclopropylpiperidin-3-yl)ethynyl)-1-(difluoromethoxy)-6-(methyl-d3)-6,7-dihydro-7,14-methanobenzo[f]benzo[4,5]imidazo[1,2-a][1,4]diazocin-5(14H)-one]
100 to 1000 nM | [2H]C([2H])([2H])N1C(=O)c2cccc(OC(F)F)c2[C@H]2C[C@@H]1c1nc3ccc(C#CC4CN(C5CC5)C4)cc3n12 [Example 223, (7R,14R)-11-((1-cyclopropylazetidin-3-yl)ethynyl)-1-(difluoromethoxy)-6-(methyl-d3)-6,7-dihydro-7,14-methanobenzo[f]benzo[4,5]imidazo[1,2-a][1,4]diazocin-5(14H)-one]
< 100 nM | [2H]C([2H])([2H])N1C(=O)c2cccc(OC(F)F)c2[C@H]2C[C@@H]1c1nc3ccc(C#CC4CN(C5COC5)C4)cc3n12 [Example 224, (7R,14R)-1-(difluoromethoxy)-6-(methyl-d3)-11-((1-(oxetan-3-yl)azetidin-3-yl)ethynyl)-6,7-dihydro-7,14-methanobenzo[f]benzo[4,5]imidazo[1,2-a][1,4]diazocin-5(14H)-one]
< 100 nM | [2H]C([2H])([2H])N1C(=O)c2cccc(OC(F)F)c2[C@H]2C[C@@H]1c1nc3ccc(C#CC4(C)CCCN(C(C)=O)C4)cc3n12 (stereo partly drawn) [Example 225, (7R,14R)-11-((1-acetyl-3-methylpiperidin-3-yl)ethynyl)-1-(difluoromethoxy)-6-(methyl-d3)-6,7-dihydro-7,14-methanobenzo[f]benzo[4,5]imidazo[1,2-a][1,4]diazocin-5(14H)-one]
< 100 nM | [2H]C([2H])([2H])N1C(=O)c2cccc(OC(F)F)c2[C@H]2C[C@@H]1c1nc3ccc(C#CCN4CC(F)(F)C4)cc3n12 [Example 231, (7R,14R)-11-(3-(3,3-difluoroazetidin-1-yl)prop-1-yn-1-yl)-1-(difluoromethoxy)-6-(methyl-d3)-6,7-dihydro-7,14-methanobenzo[f]benzo[4,5]imidazo[1,2-a][1,4]diazocin-5(14H)-one]
